In PubChem BioAssay AID977613 (Broad Institute, 2014):
Calls of active or inactive are those of the source. The rule behind the calls is not given here.

System: Broad 7084-01 inhibitor HTS, set 2
Assay: inhibitors in Broad screen 7084-01, set 2 (AID 977613);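 note: host cells are infected with parasite promastigotes that become internalized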

| Compound | active concentration |
| --- | --- |
| OC[C@@H]1[C@@H](c2ccccc2)C2(CN(Cc3nccs3)C2)N1CCC(F)(F)F | > 10 µM (inactive) |
| O=C(c1ccccc1F)N1CC(=O)N2[C@@H](CO)[C@@H](c3ccc(C#Cc4ccccc4)cc3)[C@@H]2C1 | > 10 µM (inactive) |
| O=C(c1ccccn1)N1CC[C@@H]2[C@@H](CO)Nc3ccc(Br)cc3[C@@H]21 | > 10 µM (inactive) |
| O=C(C[C@@H]1CC[C@H]2[C@@H](COC[C@@H](O)CN2CC2CC2)O1)NCC1CC1 | > 10 µM (inactive) |
| COc1ccc(NC(=O)N2CCCCN3[C@@H](CO)[C@H](c4ccc(-c5ccccc5F)cc4)[C@@H]3C2)cc1 | > 10 µM (inactive) |
| CN(C)CC(=O)N1CCCCN2[C@H](CO)[C@H](c3ccc(/C=C/c4ccccc4)cc3)[C@H]2C1 | < 10 µM |
| CCN1CC(=O)N2[C@H](CO)[C@@H](c3ccc(Br)cc3)[C@@H]2C1 | > 10 µM (inactive) |
| CC(C)CC#Cc1ccc([C@@H]2[C@H](CO)N3C(=O)CN(S(=O)(=O)c4cccc(F)c4)C[C@@H]23)cc1 | > 10 µM (inactive) |
| O=C(C[C@H]1CC[C@H]2[C@@H](COC[C@H](O)CN2C(=O)c2cccnc2)O1)NCc1ccccc1 | > 10 µM (inactive) |
| CCc1csc(N2[C@H](C#N)[C@H](c3ccccc3-c3ccc(F)cc3)[C@H]2CO)n1 | > 10 µM (inactive) |
| CCC(=O)N1CC2(CN(C(C)=O)C2)c2c([nH]c3cc(OC)ccc23)[C@@H]1CO | > 10 µM (inactive) |
| O=C(Nc1ccc(F)cc1)N1CC(=O)N2[C@H](CO)[C@H](c3ccc(C#Cc4cccnc4)cc3)[C@@H]2C1 | > 10 µM (inactive) |
| COc1ccc2c3c(n(C)c2c1)[C@@H](CO)N(S(=O)(=O)c1ccc(C)cc1)CC31CN(C(=O)c2ccccn2)C1 | > 10 µM (inactive) |
| CN1C[C@H](O)COC[C@@H]2O[C@H](CC(=O)NC3CCCC3)CC[C@H]21 | > 10 µM (inactive) |
| Cc1noc(C)c1NC(=O)N1C[C@@H](O)COC[C@H]2O[C@H](CC(=O)NCC3CCCCC3)CC[C@@H]21 | > 10 µM (inactive) |
| CN1CCCCN2[C@H](CO)[C@H](c3ccc(-c4ccc(F)cc4)cc3)[C@@H]2C1 | > 10 µM (inactive) |
| COc1ccc(-c2ccc([C@@H]3[C@H]4CN(C(=O)Cc5ccncc5)CCCCN4[C@H]3CO)cc2)cc1 | > 10 µM (inactive) |
| CCCNC(=O)N1CC2(CN(C(=O)Cc3cccnc3)C2)c2c([nH]c3cc(OC)ccc23)[C@H]1CO | > 10 µM (inactive) |
| CCCC#Cc1ccc([C@H]2[C@@H](CO)N3C(=O)CN(S(=O)(=O)c4ccccc4C)C[C@H]23)cc1 | > 10 µM (inactive) |
| CN1C(=O)c2cc(NS(C)(=O)=O)ccc2OC[C@H]2O[C@H](CC(=O)N3CCOCC3)CC[C@@H]21 | > 10 µM (inactive) |
| O=C(Cc1ccccn1)N1[C@H](CO)[C@@H]2c3ccccc3NC[C@@H]21 | > 10 µM (inactive) |
| COc1cccc(CN2CC3(C2)[C@H](c2ccccc2)[C@H](CO)N3C(=O)Cc2ccccc2)c1 | > 10 µM (inactive) |
| CCNC(=O)[C@H]1[C@H](CO)[C@H]2Cn3c(ccc(-c4ccccc4)c3=O)[C@H]2N1CC | > 10 µM (inactive) |
| O=C(C1CCC1)N1[C@H](CO)[C@@H](c2ccccc2)C12CN(CCC(F)(F)F)C2 | > 10 µM (inactive) |

| Compound | active concentration |
| --- | --- |
| COc1ccc2c3c([nH]c2c1)[C@H](CO)N(C)CC31CCN(C(=O)c2ccccc2F)CC1 | > 10 µM (inactive) |
| COc1ccc(C#Cc2ccc3c(c2)[C@H]2[C@H](CCN2C(=O)c2cccc(F)c2)[C@@H](CO)N3)cc1 | > 10 µM (inactive) |
| O=C(C[C@H]1CC[C@H]2[C@@H](COC[C@H](O)CN2C(=O)c2ccncc2)O1)NCc1ccc(-c2ccccc2)cc1 | > 10 µM (inactive) |
| COCC(=O)N1CC2(C1)CN(Cc1nccs1)[C@@H](CO)c1c2c2ccc(OC)cc2n1C | > 10 µM (inactive) |
| CN1C[C@H]2[C@@H](c3ccccc31)[C@@H](CO)N2C(=O)Nc1cccc(F)c1 | > 10 µM (inactive) |
| COc1cccc(-c2ccc([C@@H]3[C@@H](CO)N4C(=O)CNC[C@H]34)cc2)c1 | > 10 µM (inactive) |
| CN1C(=O)c2cc(NC(=O)c3cccc(F)c3)ccc2OC[C@@H]2O[C@@H](CC(=O)NCC3CCCCC3)CC[C@H]21 | > 10 µM (inactive) |
| COC(=O)c1ccc(CN2CC(=O)N3[C@H](CO)[C@@H](c4ccc(-c5cccnc5)cc4)[C@H]3C2)cc1 | > 10 µM (inactive) |
| CN(C)CC(=O)N1CCCCN2[C@H](C1)[C@H](c1ccc(/C=C/c3ccccc3)cc1)[C@@H]2CO | > 10 µM (inactive) |
| CN(C)C(=O)c1cccc(-c2ccc([C@H]3[C@H]4CN(CC5CCOCC5)CCCCN4[C@H]3CO)cc2)c1 | > 10 µM (inactive) |
| COc1ccc2c3c(n(C)c2c1)[C@@H](CO)N(CC1CCCC1)CC31CN(C(=O)Nc2ccccc2)C1 | > 10 µM (inactive) |
| CCC(=O)N1CC2(C1)[C@@H](c1ccccc1)[C@@H](CO)N2C(=O)NC(C)C | > 10 µM (inactive) |
| O=C(C1CCCCC1)N1CC(=O)N2[C@H](CO)[C@@H](c3ccc(-c4ccccc4F)cc3)[C@H]2C1 | > 10 µM (inactive) |
| C/C=C/c1ccc([C@H]2[C@@H](CO)N3C(=O)CN(C(=O)c4ccncc4)C[C@@H]23)cc1 | > 10 µM (inactive) |
| CCNC(=O)C[C@H]1CC[C@@H]2[C@H](COC[C@@H](O)CN2C(=O)C2CC2)O1 | > 10 µM (inactive) |
| CC(=O)N1CCCCN2[C@@H](CO)[C@H](c3ccc(-c4ccccc4)cc3)[C@@H]2C1 | > 10 µM (inactive) |
| CCNC(=O)C[C@H]1CC[C@@H]2[C@H](COC[C@H](O)CN2C(=O)C2CC2)O1 | > 10 µM (inactive) |
| COc1ccccc1-c1ccccc1[C@@H]1[C@@H](C#N)N(C(=O)C2CCOCC2)[C@H]1CO | > 10 µM (inactive) |
| O=C(C[C@H]1CC[C@@H]2[C@H](COC[C@@H](O)CN2S(=O)(=O)c2cccc(F)c2)O1)Nc1ccc(-c2ccccc2)cc1 | > 10 µM (inactive) |
| COc1ccc2c3c(n(C)c2c1)[C@H](CO)N(C)CC31CCN(S(=O)(=O)c2cccc(F)c2)CC1 | > 10 µM (inactive) |
| O=C(CN1CCOCC1)N1CC(=O)N2[C@H](CO)[C@@H](c3ccc(-c4cccc(F)c4)cc3)[C@@H]2C1 | > 10 µM (inactive) |
| CC(C)CC#Cc1ccc([C@H]2[C@H](CO)N3C(=O)CN(C(=O)c4ccccn4)C[C@@H]23)cc1 | > 10 µM (inactive) |
| COc1cccc(C(=O)N2C[C@@H]3[C@H](c4ccccc42)[C@H](CO)N3Cc2ccccc2Cl)c1 | > 10 µM (inactive) |
| O=C(NCC(F)(F)F)[C@@H]1[C@@H](CO)[C@@H]2Cn3c(cccc3=O)[C@H]1N2CC1CCOCC1 | > 10 µM (inactive) |

| Compound | active concentration |
| --- | --- |
| COc1ccc(NC(=O)N2CC(=O)N3[C@@H](CO)[C@H](c4ccc(Br)cc4)[C@@H]3C2)cc1 | > 10 µM (inactive) |
| CCc1cnc(N2[C@H](C#N)[C@@H](c3ccccc3C3=CCCCC3)[C@@H]2CO)s1 | > 10 µM (inactive) |
| CN1c2ccc(-c3ccc(C#N)cc3)cc2[C@@H]2[C@@H](CCN2C(=O)Nc2cccc(F)c2)[C@@H]1CO | > 10 µM (inactive) |
| COc1ccccc1-c1ccccc1[C@H]1[C@H](C#N)N(C(=O)CN(C)C)[C@H]1CO | > 10 µM (inactive) |
| CC(C)NC(=O)N1[C@@H]2CN(C)c3ccccc3[C@@H]2[C@@H]1CO | > 10 µM (inactive) |
| N#C[C@H]1[C@H](c2ccccc2-c2ccccc2)[C@@H](CO)N1C(=O)Cc1ccncc1 | > 10 µM (inactive) |
| COc1ccccc1CN1CC[C@@H]2[C@H](CO)Nc3ccc(C#Cc4ccccc4)cc3[C@@H]21 | > 10 µM (inactive) |
| COC(=O)C[C@@H]1CC[C@@H]2[C@H](COc3ccc(NS(=O)(=O)c4ccccc4Cl)cc3C(=O)N2C)O1 | > 10 µM (inactive) |
| CC(C)CC#Cc1ccc([C@H]2[C@H]3CN(S(=O)(=O)c4cccc(F)c4)CC(=O)N3[C@H]2CO)cc1 | > 10 µM (inactive) |
| O=C(c1cccc(F)c1)N1CCCCN2[C@H](CO)[C@H](c3ccc(C#CC4(O)CCCC4)cc3)[C@H]2C1 | > 10 µM (inactive) |
| O=C(C[C@@H]1CC[C@@H]2[C@H](COC[C@@H](O)CN2S(=O)(=O)c2ccccc2)O1)Nc1ccccc1 | > 10 µM (inactive) |
| CN(C)C(=O)C[C@H]1CC[C@H]2[C@@H](COC[C@@H](O)CN2C(=O)C2CC2)O1 | > 10 µM (inactive) |
| O=S(=O)(c1ccccc1)N1CCCCN2[C@@H](CO)[C@@H](c3ccc(C#CC4CCCC4)cc3)[C@@H]2C1 | > 10 µM (inactive) |
| CCCN1[C@@H]2c3ccc(C4=CCCCC4)c(=O)n3C[C@@H]2[C@@H](CO)[C@@H]1C(=O)NC1Cc2ccccc2C1 | > 10 µM (inactive) |
| COc1cccc(S(=O)(=O)N2CCCCN3[C@@H](CO)[C@@H](c4ccc(C#CCC(C)C)cc4)[C@@H]3C2)c1 | > 10 µM (inactive) |
| CN1C(=O)c2cc(NC(=O)Nc3ccccc3Cl)ccc2OC[C@H]2O[C@H](CC(=O)NCCCN3CCOCC3)CC[C@@H]21 | > 10 µM (inactive) |
| CCC(=O)N1CC2(C1)[C@@H](c1ccc(-c3ccc(F)cc3)cc1)[C@H](CO)N2C(=O)CC | > 10 µM (inactive) |
| CCCNC(=O)[C@@H]1[C@@H](CO)[C@@H]2Cn3c(cccc3=O)[C@@H]2N1C | > 10 µM (inactive) |
| C/C=C/c1ccccc1[C@@H]1[C@@H](C#N)N(C(C)=O)[C@@H]1CO | > 10 µM (inactive) |
| CC(=O)N1CC2(C1)[C@H](c1ccc(-c3cccc(C#N)c3)cc1)[C@H](CO)N2CCC(F)(F)F | > 10 µM (inactive) |
| O=C(C[C@H]1CC[C@@H]2[C@H](COC[C@H](O)CN2C(=O)Cc2ccccc2)O1)NC1CCCC1 | > 10 µM (inactive) |
| COCC(=O)N1[C@H](C#N)[C@H](c2ccccc2-c2ccc(C)cc2)[C@@H]1CO | > 10 µM (inactive) |
| CCCC#Cc1ccc([C@@H]2[C@H]3CN(S(=O)(=O)c4ccccc4C)CC(=O)N3[C@H]2CO)cc1 | > 10 µM (inactive) |
| O=C(C[C@H]1CC[C@H]2[C@@H](COC[C@H](O)CN2CCC(F)(F)F)O1)NCC1CC1 | > 10 µM (inactive) |
